Common to all, as to type: cell-based
Assay [1] concerns the target MEF2D/HDAC4 protein-protein interactions (Homo sapiens (Human), UniProt Q14814). Briefly: Mammalian two-hybrid assay, inhibition of MEF2D and HDAC4 protein interactions (luciferase reporter in HeLa cells). The following applies: HeLa cells co-transfected with GAL4-MEF2D, HDAC4-VP16 and Gal4Luc; overnight treatment; luciferase normalized to Renilla. From the text:
Detection of MEF2D and HDAC4 interactions. In this mammalian two-hybrid assay, HDAC4 and MEF2D proteins were used. […] Human epithelial carcinoma cells (HeLa) were co-transfected with the two DNA constructs (GAL4-MEF2D and HDAC4-VP16) and a reporter plasmid (Gal4Luc). […] MEF2D and HDAC4 protein interactions were detected as a result of the GAL4-MEF2D and HDAC4-VP16 protein complex binding a DNA promoter on the reporter plasmid (Gal4Luc) and driving cellular expression of a luciferase gene. The measured luciferase protein signal was proportional to the amount of MEF2D and HDAC4 protein interactions occurring with the cell.
The HDAC4 fragment lacked the catalytic domain so that the deacetylase activity was excluded from the assay.
Detection of inhibition of MEF2D and HDAC4 interactions. Next, the assay was used to test whether the compounds could disrupt the interactions between MEF2D and HDAC4. After co-expressing the GAL4-MEF2D and HDAC4-VP16 DNA constructs and reporter plasmid, the HeLa cells were treated with a test compound (10 μM) overnight. Cells transfected with the positive control GAL4VP16 fusion construct and reporter plasmid were also treated with the test compound (10 μM) overnight. As another control, DMSO was added (but kept below 0.2% V/V) to cells transfected with the positive GAL4VP16 fusion construct or the GAL4-MEF2D and HDAC4-VP16 DNA constructs. A luciferase assay was performed as described above according to the manufacturer's protocol (Promega). The luciferase response was normalized against the Renilla Luciferase as an internal control.
The relative activity and IC50 calculations. […] The relative activity, I, was the ratio of former to later, i.e. X/Y, expressed in percentile. […] The IC50 was the concentration of the compounds when X/Y equals 50.

In assay [2] the target is MEF2D/p300 protein-protein interactions (Homo sapiens (Human), UniProt Q14814). As to the kind of experiment: Mammalian two-hybrid assay, inhibition of MEF2D and P300 protein interactions (luciferase reporter in HeLa cells). To be noted: HeLa cells co-transfected with GAL4-MEF2D, P300-VP16 and Gal4Luc. From the text: Detection of MEF2D and P300 interactions. The same system that was used in Example 19 is used in here to detect MEF2D and P300 interactions. In this assay, two separate DNA constructs were made with MEF2D fused with the GAL4 DNA binding domain (GAL4-MEF2D) and P300 fused with the viral transactivator VP-16 ([…]). Human epithelial carcinoma cells (HeLa) were co-transfected with the two DNA constructs (GAL4-MEF2D and P300-VP16) and a reporter plasmid (Gal4Luc). […] MEF2D and P300 protein interactions were detected as a result of the GAL4-MEF2D and P300-VP16 protein complex binding a DNA promoter on the reporter plasmid (Gal4Luc) and driving cellular expression of a luciferase gene. The measured luciferase protein signal was proportional to the amount of MEF2D and P300 protein interactions occurring with the cell.
The relative activity and IC50 calculations. The IC50 concentrations were calculated in the same manner as described for Example 19.

Assay [3] deals with neonatal rat ventricular myocytes (NRVMs). As to the kind of experiment: Inhibition of fetal calf serum induced cardiomyocyte hypertrophy in vitro. The following applies: Rattus norvegicus, Ventricular myocyte; serum-starved NRVMs, 5% FCS, myocyte size 48 hours after treatment; concentration reducing FCS-induced hypertrophy by 50%. The procedure: To evaluate the ability of the test compounds to inhibit cardio myocyte hypertrophy in vitro, serum-starved neonatal rat ventricular myocytes (NRVMs) were exposed to medium with 5% Fetal Calf Serum (FCS), a powerful activator of myoctye growth (hypertrophy) and treated with one of the compounds at doses ranging from 0.2-10 μM or with the vehicle (dimethyl sulfoxide (DMSO)). Control cells received fresh media without serum. The myocyte size was determined 48 hours after treatment. The results in Table 7 show the concentrations of the test compounds required to reduce the FCS-induced hypertrophy in the NRVMs by 50% (IC50 μM).

SMILES strings stand for the structures. Where a name gives a salt, the structure may show the parent alone.

MEF2D/p300 protein-protein interactions, sequence (Q14814 whole entry, species assumed, the tested form may be a part): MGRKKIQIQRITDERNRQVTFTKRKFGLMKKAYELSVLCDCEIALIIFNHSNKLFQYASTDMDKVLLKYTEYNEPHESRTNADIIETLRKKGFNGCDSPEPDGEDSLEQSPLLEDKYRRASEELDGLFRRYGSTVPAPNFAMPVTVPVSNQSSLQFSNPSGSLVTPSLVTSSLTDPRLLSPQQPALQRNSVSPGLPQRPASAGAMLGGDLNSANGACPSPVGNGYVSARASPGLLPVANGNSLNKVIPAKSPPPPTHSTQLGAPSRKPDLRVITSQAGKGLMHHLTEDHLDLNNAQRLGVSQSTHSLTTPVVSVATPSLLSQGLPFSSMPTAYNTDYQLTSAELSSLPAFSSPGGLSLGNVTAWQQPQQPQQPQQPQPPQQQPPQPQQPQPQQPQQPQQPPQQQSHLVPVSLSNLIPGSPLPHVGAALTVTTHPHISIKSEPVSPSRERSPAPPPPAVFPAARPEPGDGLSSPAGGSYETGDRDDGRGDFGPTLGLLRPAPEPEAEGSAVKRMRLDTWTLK
MEF2D/HDAC4 protein-protein interactions, sequence (Q14814 whole entry, species assumed, the tested form may be a part): as above

Turning to `CCOC(=O)N[C@@H](CCCCC(=O)Nc1ccccc1N)C(=O)Nc1cccc(Br)c1` [ST104, (S)-ethyl (7-((2-aminophenyl)amino)-1-((3-bromophenyl)amino)-1,7-dioxoheptan-2-yl)carbamate], the IC50 in assay [1] came out at 470 nM; in assay [2], 380 nM; in assay [3], 2.89 µM.

For `COC(=O)NC(CCCCC(=O)Nc1ccccc1N)C(=O)Nc1cccc(OCC(F)(F)F)c1` (stereo not drawn) [ST102, methyl (7-((2-aminophenyl)amino)-1,7-dioxo-1-((3-(2,2,2-trifluoroethoxy)phenyl)amino)heptan-2-yl)carbamate hydrochloride], the IC50 was 940 nM in assay [1], 1200 nM in assay [2] and 0.71 µM in assay [3].

Consider `CCOc1cccc(NCc2cccc(/C=C/C(=O)Nc3ccccc3N)c2)c1` [ST4, (E)-N-(2-aminophenyl)-3-(3-(((3-ethoxyphenyl)amino)methyl)phenyl)acrylamide], for which the half-maximal inhibitory concentration (IC50) was 1070 nM in assay [1], 1100 nM in assay [2] and 4.37 µM in assay [3].

With `Nc1ccccc1NC(=O)CCCCC(NC(=O)c1cccnc1)C(=O)Nc1cccc(Br)c1` (stereo not drawn) [ST93, N^7-(2-aminophenyl)-N^1-(3-bromophenyl)-2-(nicotinamido)heptanediamide], the 50% inhibitory concentration (IC50) worked out at 610 nM in assay [1], 1080 nM in assay [2] and 5500 µM in assay [3].

As to `Nc1ccccc1NC(=O)/C=C/c1cccc(CNCc2cccc(OC3CCC3)c2)c1` [ST14], the IC50 in assay [1] came out at 1520 nM; in assay [2] it was 940 nM; in assay [3], 0.15 µM.

With `CCOC(=O)NC(CCCCC(=O)Nc1ccccc1N)C(=O)Nc1cccc(OC2CC2)c1` (stereo not drawn) [ST83, ethyl (7-((2-aminophenyl)amino)-1-((3-cyclopropoxyphenyl)amino)-1,7-dioxoheptan-2-yl)carbamate], the IC50 in assay [1] was 840 nM; in assay [2], 440 nM; in assay [3], 3.85 µM.

The values above are taken from patent publication US11230524B2, “Myocyte enhancer factor 2 (MEF2) modulators” (STANDARD LLC, priority 2017, dated 2022).
